Measured values published in article PMC3322948, “Phase I first-in-human study of TAK-285, a novel investigational dual HER2/EGFR inhibitor, in cancer patients” (British Journal of Cancer, 2012).
Like-named read-outs stand apart in the source and are kept apart here.

Key:
[1] = Plasma pharmacokinetics after oral TAK-285 (LC-MS/MS, noncompartmental); assay type: in vivo, human (Japanese patients); conditions: for Cmax / half-life / Tmax / AUC(0-inf) / AUC: human, plasma, oral; for Tmax: median (range); for AUC: read-out: AUC0–tau
Experimental: In the dose escalation cohort, plasma samples for PK analysis were collected at predose and up to 72 h after single dose administration and on day 21 after repeated administration of TAK-285. Urine samples were also collected up to 24-h postdose. In the repeated administration cohort, plasma samples for PK analysis were collected at predose and up to 12-h postdose on days 1 and 28. Urine samples were also collected up to 12-h postdose each day. Concentrations of TAK-285 and M-I in plasma and urine were determined using validated liquid chromatography tandem mass spectrometry (LC-MS/MS) methods. The plasma and urine samples were treated by liquid–liquid extraction and subjected to LC-MS/MS equipped with a reversed-phase column. The lower limit of quantification for both TAK-285 and M-I was 0.2 ng ml^–1 in plasma and 2 ng ml^–1 in urine when 50 μl of the plasma sample and 55 μl of the urine sample (containing 5 μl of Tween 80 solution) were analysed. Tween 80 solution was added to the urine sample to prevent the adsorption of analytes onto the sample containers. The accuracy of the plasma assay (percentage deviation from nominal) ranged from −10.8 to 11.0% for TAK-285, and from −14.0 to 13.8% for M-I. […] Pharmacokinetic parameters of TAK-285 and M-I were estimated for each patient using noncompartmental methods with Phoenix WinNonlin Version 6.1 (Pharsight, Mountain View, CA, USA).

circulating tumour cells = assay: Circulating tumour cell enumeration (CellSearch); assay type: in vivo, human (Japanese patients)
Experimental: At screening and on day 15 after the start of repeated administration, 20 ml of peripheral blood was obtained and divided into two 10 ml exclusive use containers (CellSave tubes) filled with 300 μl of preservative solution (4.6% Na-ethylenediaminetetraacetate, 36% cell preservative, 0.36% polyethylene glycol and 0.4% inert ingredients). The samples were stored at room temperature and processed within 72 h after sampling. The CellSearch System (Veridex LLC, Raritan, NJ, USA) was used for the isolation and enumeration of circulating tumour cells (CTCs), which were defined as nucleated cells lacking cluster of differentiation 45 and expressing cytokeratin.

solid tumours = assay: Antitumour activity by RECIST in patients; assay type: in vivo, human (Japanese patients)
Experimental: The primary study endpoints were to determine the MTD as well as PK profiles of TAK-285 and its metabolite, M-I (data on file, Takeda Pharmaceutical Company Limited). The secondary endpoints were objective response rate (complete response (CR) and partial response (PR)), disease control rate (CR, PR and stable disease (SD), for at least 12 weeks), and time to tumour progression, defined as the time from the first dose of TAK-285 until disease progression or death. Tumour response was assessed every 4 weeks by RECIST version 1.0 ([Therasse et al, 2000]).

EGFR = conditions: biochemical; ref Aertgeerts et al, 2011; read-out: 50% inhibition concentration, EGFR phosphorylation; cited from earlier work
[2] = tested on: HER2- or EGFR-overexpressing human tumour xenografts such as BT-474, 4-1 ST and A431; parameters: method as in Iwahara et al, 2008; conditions: orally administered; ref Iwahara et al, 2008; cited from earlier work
[3] = rodent and primate; non-clinical studies; cited from earlier work
[4] = parameters: method as in Shell et al, 2008; conditions: non-clinical; ref Shell et al, 2008; cited from earlier work
[5] = 50 mg, single dosing, 50 mg b.i.d., dose escalation cohort, mean (s.d.)
[6] = 50 mg, single dosing, 50 mg q.d., dose escalation cohort, mean (s.d.)
[7] = 100 mg, single dosing, 100 mg b.i.d., dose escalation cohort, mean (s.d.)
[8] = 200 mg, single dosing, 200 mg b.i.d., dose escalation cohort, mean (s.d.)
[9] = 300 mg, single dosing, 300 mg b.i.d., repeated administration cohort, mean (s.d.)
[10] = multiple versus single dosing, across doses

CC(C)(O)CC(=O)NCCn1ccc2ncnc(Nc3ccc(Oc4cccc(C(F)(F)F)c4)c(Cl)c3)c21 [TAK-285]
R (Cmax), accumulation ratio multiple versus single dosing ([1]; day 21, 50 mg b.i.d., dose escalation cohort, mean (s.d.)): […] | R (Cmax), accumulation ratio multiple versus single dosing ([1]; day 21, 50 mg q.d., dose escalation cohort, mean (s.d.)): […] | R (Cmax), accumulation ratio multiple versus single dosing ([1]; day 21, 100 mg b.i.d., dose escalation cohort, mean (s.d.)): […] | R (Cmax), accumulation ratio multiple versus single dosing ([1]; day 21, 200 mg b.i.d., dose escalation cohort, mean (s.d.)): […] | R (Cmax), accumulation ratio multiple versus single dosing ([1]; day 21, 300 mg b.i.d., dose escalation cohort, mean (s.d.)): […] | R (Cmax), accumulation ratio multiple versus single dosing ([1]; day 28, 300 mg b.i.d., repeated administration cohort, mean (s.d.)): […] | Cmax ([1]; 50 mg b.i.d., multiple dosing day 21, 50 mg b.i.d., dose escalation cohort, mean (s.d.)): 0.358 µg/mL | half-life ([1]; 50 mg b.i.d., multiple dosing day 21, 50 mg b.i.d., dose escalation cohort, mean (s.d.), read-out: t1/2 (converted)): 7.49 h | Tmax ([1]; 50 mg b.i.d., multiple dosing day 21, 50 mg b.i.d., dose escalation cohort): 2.05 h | Cmax ([1]; 50 mg q.d., multiple dosing day 21, 50 mg q.d., dose escalation cohort, mean (s.d.)): 0.26 µg/mL | half-life ([1]; 50 mg q.d., multiple dosing day 21, 50 mg q.d., dose escalation cohort, mean (s.d.), read-out: t1/2 (converted)): 8.69 h | Tmax ([1]; 50 mg q.d., multiple dosing day 21, 50 mg q.d., dose escalation cohort): 2 h | AUC(0-inf) [1, 5]: 1.97 µg·h/mL | Cmax [1, 5]: 0.234 µg/mL | half-life ([1]; 50 mg, single dosing, 50 mg b.i.d., dose escalation cohort, mean (s.d.), read-out: t1/2 (converted)): 6.45 h | Tmax ([1]; 50 mg, single dosing, 50 mg b.i.d., dose escalation cohort): 1 h | AUC(0-inf) [1, 6]: 1.73 µg·h/mL | Cmax [1, 6]: 0.214 µg/mL | half-life ([1]; 50 mg, single dosing, 50 mg q.d., dose escalation cohort, mean (s.d.), read-out: t1/2 (converted)): 7.27 h | Tmax ([1]; 50 mg, single dosing, 50 mg q.d., dose escalation cohort): 1.49 h | Cmax ([1]; 100 mg b.i.d., multiple dosing day 21, 100 mg b.i.d., dose escalation cohort, mean (s.d.)): 0.774 µg/mL | half-life ([1]; 100 mg b.i.d., multiple dosing day 21, 100 mg b.i.d., dose escalation cohort, mean (s.d.), read-out: t1/2 (converted)): 7.79 h | Tmax ([1]; 100 mg b.i.d., multiple dosing day 21, 100 mg b.i.d., dose escalation cohort): 2 h | AUC(0-inf) [1, 7]: 2.82 µg·h/mL | Cmax [1, 7]: 0.379 µg/mL | half-life ([1]; 100 mg, single dosing, 100 mg b.i.d., dose escalation cohort, mean (s.d.), read-out: t1/2 (converted)): 9.43 h | Tmax ([1]; 100 mg, single dosing, 100 mg b.i.d., dose escalation cohort): 2 h | Cmax ([1]; 200 mg b.i.d., multiple dosing day 21, 200 mg b.i.d., dose escalation cohort, mean (s.d.)): 2.42 µg/mL | half-life ([1]; 200 mg b.i.d., multiple dosing day 21, 200 mg b.i.d., dose escalation cohort, mean (s.d.), read-out: t1/2 (converted)): 6.95 h | Tmax ([1]; 200 mg b.i.d., multiple dosing day 21, 200 mg b.i.d., dose escalation cohort): 2 h | AUC(0-inf) [1, 8]: 9.53 µg·h/mL | Cmax [1, 8]: 0.965 µg/mL | half-life ([1]; 200 mg, single dosing, 200 mg b.i.d., dose escalation cohort, mean (s.d.), read-out: t1/2 (converted)): 6.57 h | Tmax ([1]; 200 mg, single dosing, 200 mg b.i.d., dose escalation cohort): 2.48 h | Cmax ([1]; 300 mg b.i.d., multiple dosing day 21, 300 mg b.i.d., dose escalation cohort, mean (s.d.)): 3.7 µg/mL | half-life ([1]; 300 mg b.i.d., multiple dosing day 21, 300 mg b.i.d., dose escalation cohort, mean (s.d.), read-out: t1/2 (converted)): 8.25 h | Tmax ([1]; 300 mg b.i.d., multiple dosing day 21, 300 mg b.i.d., dose escalation cohort): 2 h | Cmax ([1]; 300 mg, multiple dosing day 28, 300 mg b.i.d., repeated administration cohort, mean (s.d.)): 2.81 µg/mL | half-life ([1]; 300 mg, multiple dosing day 28, 300 mg b.i.d., repeated administration cohort, mean (s.d.), read-out: t1/2 (converted)): 11.1 h | Tmax ([1]; 300 mg, multiple dosing day 28, 300 mg b.i.d., repeated administration cohort): 2.97 h | Cmax ([1]; 300 mg, single dosing, 300 mg b.i.d., dose escalation cohort, mean (s.d.)): 1.35 µg/mL | half-life ([1]; 300 mg, single dosing, 300 mg b.i.d., dose escalation cohort, mean (s.d.), read-out: t1/2 (converted)): 7.5 h | Tmax ([1]; 300 mg, single dosing, 300 mg b.i.d., dose escalation cohort): 2 h | AUC(0-inf) [1, 9]: 9.21 µg·h/mL | Cmax [1, 9]: 0.983 µg/mL | half-life ([1]; 300 mg, single dosing, 300 mg b.i.d., repeated administration cohort, mean (s.d.), read-out: t1/2 (converted)): 6.1 h | Tmax ([1]; 300 mg, single dosing, 300 mg b.i.d., repeated administration cohort): 2.03 h | half-life ([1]; at all doses, single dose, read-out: estimated terminal-phase half-life (t1/2)): 6 to 9 h | AUC ([1]; multiple dosing day 21, 50 mg b.i.d., dose escalation cohort, mean (s.d.)): 2.72 µg·h/mL | AUC ([1]; multiple dosing day 21, 50 mg q.d., dose escalation cohort, mean (s.d.)): 2.21 µg·h/mL | AUC ([1]; multiple dosing day 21, 100 mg b.i.d., dose escalation cohort, mean (s.d.)): 6.09 µg·h/mL | accumulation ratios of AUC [1, 10]: […] | accumulation ratios of Cmax [1, 10]: […] | circulating tumour cell (CTC) changes after treatment (circulating tumour cells; screening versus cycle 1 day 15): did not show significant changes | patients with unfavourable baseline CTC count converted to favourable (circulating tumour cells; seven patients with ⩾5 cells per 7.5 ml blood at baseline): none | disease control rate (solid tumours; 1 of 26 patients): 3.8% | objective response rate (solid tumours; 1 of 26 patients): 3.8% | median time to tumour progression (solid tumours; 26 patients): 58 days | patients showing reduction in tumour size (solid tumours; dose escalation cohort): one | patients achieving partial response (PR), percent (solid tumours; of 26 patients): 3.8% | patients achieving partial response (PR), number (solid tumours; parotid cancer, 300 mg b.i.d.): One | duration of partial response (solid tumours; patient with parotid cancer): […] | patients showing reduction in tumour size (solid tumours; repeated administration cohort, of six patients): three | IC50 (EGFR): […] | xenograft growth [2]: effectively inhibited xenograft growth | tolerability in toxicity models [3]: well tolerated | cardiac risks [4]: potentially no exhibition of elevated cardiac risks
